According to patent publication US10961215B2, “N-aryl and N-heteroaryl piperidine derivatives as liver X receptor beta agonists, compositions, and their use” (Merck Sharp & Dohme Corp., priority 2016, dated 2021):

Tests used:
[1] = target: T1, GST tagged LXRalpha LBD (ligand binding domain) (Homo sapiens, UniProt Q13133); assay: LanthaScreen TR-FRET Liver X Receptor Coactivator Assay, LXR alpha-LBD (co-activator recruitment; IP and % Emax relative to T0901317); format: biochemical; settings: for LXR alpha IP (nM) / EC50: Inflection Point of co-activator recruitment, LXR alpha-LBD, TR-FRET; for Emax: read-out: LXR alpha actiivty at max dose (%)
T1 construct: purchased Invitrogen pv4655
T1 sequence (Q13133 209-447 limits assumed): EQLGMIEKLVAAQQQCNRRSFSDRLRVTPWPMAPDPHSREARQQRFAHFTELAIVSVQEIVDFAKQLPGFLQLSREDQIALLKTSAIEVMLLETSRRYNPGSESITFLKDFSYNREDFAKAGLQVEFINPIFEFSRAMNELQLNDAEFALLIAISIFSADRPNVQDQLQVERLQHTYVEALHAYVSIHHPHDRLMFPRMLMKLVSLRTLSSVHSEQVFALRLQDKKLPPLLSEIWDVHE
Procedure, shortened: (§1)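 Coactivator recruitment is scored against T0901317 as reference dual agonist, giving inflection-point potency and Emax. Compounds met the GST-LBD protein first, then a mix of terbium anti-GST antibody and fluorescein coactivator peptide. TR-FRET was measured after incubation at room temperature.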

[2] = target: T2, GST tagged LXRbeta LBD (ligand binding domain) (Homo sapiens, UniProt P55055); assay: LanthaScreen TR-FRET Liver X Receptor Coactivator Assay, LXR beta-LBD (co-activator recruitment; IP and % Emax relative to T0901317); format: biochemical; settings: for EC50: Inflection Point of co-activator recruitment, LXR beta-LBD, TR-FRET; for Emax: read-out: LXR beta actiivty at max dose (%)
T2 construct: purchased Invitrogen pv4658.pps
T2 sequence (P55055 222-460 limits assumed): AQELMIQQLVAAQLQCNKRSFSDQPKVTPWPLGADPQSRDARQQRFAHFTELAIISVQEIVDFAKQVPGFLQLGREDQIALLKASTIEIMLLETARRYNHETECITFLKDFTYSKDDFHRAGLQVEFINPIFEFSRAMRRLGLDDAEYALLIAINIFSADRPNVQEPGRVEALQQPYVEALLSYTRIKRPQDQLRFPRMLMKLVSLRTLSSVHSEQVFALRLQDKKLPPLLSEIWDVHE
Procedure, shortened: as §1

[3] = efficacy at max dose in relation to reference T0901317, LXR alpha-LBD
[4] = efficacy at max dose in relation to reference T0901317, LXR beta-LBD

| SMILES | LXR alpha IP (nM) [1] | Emax [1, 3] [%] | EC50 [2] [nM] | Emax [2, 4] [%] | EC50 [1] [nM] | LXR alpha actiivty at max dose (%) [1, 3] [%] | LXR beta actiivty at max dose (%) [2, 4] [%] |
| --- | --- | --- | --- | --- | --- | --- | --- |
| COc1cccc([C@@](O)(C(=O)N(C)CCCC2CCN(c3ccc(C(=O)N4C(C)CCC4C)c(Cl)n3)CC2)C(F)(F)F)c1 (stereo partly drawn) [Example 2-10, (2R)-N-(3-(1-(6-chloro-5-(2,5-dimethylpyrrolidine-1-carbonyl)pyridin-2-yl)piperidin-4-yl)propyl)-3,3,3-trifluoro-2-hydroxy-2-(3-methoxyphenyl)-N-methylpropanamide] | No IP | 0 | 134 | 43 | – | – | – |
| CN(C)C(=O)c1ccc(N2CCC(CCCN(C)C(=O)C3(c4ccccc4)OCCO3)CC2)nc1Cl [Example 1-14, 2-chloro-N,N-dimethyl-6-(4-(3-(N-methyl-2-phenyl-1,3-dioxolane-2-carboxamido)propyl)piperidin-1-yl)nicotinamide] | No IP | 0 | 366 | 19 | – | – | – |
| COc1cccc([C@@](O)(C(=O)N(C)CC2CC(C3CCN(c4ccc(C(=O)N(C)C)c(Cl)n4)CC3)C2)C(F)(F)F)c1 (stereo partly drawn) [Example 16-1, (R)-2-chloro-N,N-dimethyl-6-(4-(3-((3,3,3-trifluoro-2-hydroxy-2-(3-methoxyphenyl)-N-methylpropanamido)methyl)cyclobutyl)piperidin-1-yl)nicotinamide] | – | 36 | 47 | 64 | 1400 | – | – |
| COc1cccc([C@@](O)(C(=O)Nc2ccc(C3CCN(c4ccc(C(=O)N(C)C)c(Cl)n4)CC3)cc2)C(F)(F)F)c1 [Example 10-1, (R)-2-chloro-N,N-dimethyl-6-(4-(4-(3,3,3-trifluoro-2-hydroxy-2-(3-methoxyphenyl)propanamido)phenyl)piperidin-1-yl)nicotinamide] | No IP | 0 | 1350 | 65 | – | – | – |
| COc1cccc([C@@](O)(C(=O)NCC[C@H]2CC23CCN(c2ccc(C(=O)N(C)C(C)C)c(Cl)c2)CC3)C(F)(F)F)c1 [Example 7-31, 2-chloro-N-isopropyl-N-methyl-4-((R)-1-(2-((R)-3,3,3-trifluoro-2-hydroxy-2-(3-methoxy-phenyl)propanamido)ethyl)-6-azaspiro[2.5]octan-6-yl)benzamide] | No IP | 1 | 304 | 49 | – | – | – |
| COc1cccc([C@@](O)(C(=O)N(C)CC[C@H]2CC23CCN(c2ccc(C(=O)NC4CC4)c(Cl)c2)CC3)C(F)(F)F)c1 [Example 7-9, 2-chloro-N-cyclopropyl-4-((R)-1-(2-((R)-3,3,3-trifluoro-2-hydroxy-2-(3-methoxyphenyl)-N-methylpropanamido)ethyl)-6-azaspiro[2.5]octan-6-yl)benzamide] | – | 25 | 109 | 52 | 775 | – | – |
| CN(C)C(=O)c1ccc(N2CCC([C@H]3C[C@H]3CNC(=O)[C@](O)(c3ccccc3)C(F)(F)F)CC2)nc1Cl [Example 15-9] | – | 39 | 393 | 54 | 4220 | – | – |
| CCOc1cccc([C@@](O)(C(=O)N(C)CCCC2CCN(c3ccc(C(=O)N(C)C)c(Cl)c3)CC2)C(F)(F)F)c1 [Example 4-2, (R)-2-chloro-4-(4-(3-(2-(3-ethoxyphenyl)-3,3,3-trifluoro-2-hydroxy-N-methylpropanamido)propyl)piperidin-1-yl)-N,N-dimethylbenzamide] | No IP | 0 | 217 | 49 | – | – | – |
| CN(C)C(=O)c1ccc(N2CCC([C@H]3C[C@H](N(C)C(=O)[C@](O)(c4cccc(C5CC5)c4)C(F)(F)F)C3)CC2)nc1Cl [Example 17-1, 2-chloro-6-(4-((1R,3r)-3-((R)-2-(3-cyclopropylphenyl)-3,3,3-trifluoro-2-hydroxy-N-methylpropanamido)cyclobutyl)piperidin-1-yl)-N,N-dimethylnicotinamide] | No IP | 14 | 18 | 76 | – | – | – |
| COc1cccc([C@@](O)(C(=O)NC2CC(CC3CCN(c4ccc(C(=O)N(C)C)c(Cl)c4)CC3)C2)C(F)(F)F)c1 (stereo partly drawn) [Example 11-6, (R)-2-chloro-N,N-dimethyl-4-(4-((3-(3,3,3-trifluoro-2-hydroxy-2-(3-methoxyphenyl)propanamido)cyclobutyl)methyl)piperidin-1-yl)benzamide] | No IP | 3 | 561 | 54 | – | – | – |
| CNC(=O)c1ccc(N2CCC3(CC2)C[C@H]3CCN(C)C(=O)[C@](O)(c2cccc(OC)c2)C(F)(F)F)cc1Cl [Example 7-21, 2-chloro-N-methyl-4-((S)-1-(2-((R)-3,3,3-trifluoro-2-hydroxy-2-(3-methoxyphenyl)-N-methylpropanamido)ethyl)-6-azaspiro[2.5]octan-6-yl)benzamide] | No IP | 12 | 1550 | 36 | – | – | – |
| CNC(=O)c1ccc(N2CCC(c3ccc(NC(=O)[C@](O)(c4cccc(OC)c4)C(F)(F)F)cc3)CC2)cc1Cl [Example 10-2, (R)-2-chloro-N-methyl-4-(4-(4-(3,3,3-trifluoro-2-hydroxy-2-(3-methoxyphenyl)propanamido)phenyl)piperidin-1-yl)benzamide] | No IP | 0 | 3730 | 40 | – | – | – |
| COc1cccc([C@](O)(C(=O)N(C)CCCC2CCN(c3ccc(C(=O)N(C)C)c(Cl)n3)CC2)C(F)(F)F)c1 [Example 1-27, (S)-2-chloro-N,N-dimethyl-6-(4-(3-(3,3,3-trifluoro-2-hydroxy-2-(3-methoxyphenyl)-N-methylpropanamido)propyl)piperidin-1-yl)nicotinamide] | No IP | 3 | 603 | 53 | – | – | – |
| CN(C)C(=O)c1ccc(N2CCC(CCCN(C)C(=O)C(O)(c3ccccc3)C(F)(F)F)CC2)cc1Cl (single isomer, unassigned) [Example 4-6, 2-chloro-N,N-dimethyl-4-(4-(3-(3,3,3-trifluoro-2-hydroxy-N-methyl-2-phenylpropanamido)propyl)piperidin-1-yl)benzamide] | – | – | 77 | – | 677 | 15 | 73 |
| CNC(=O)c1ccc(N2CCC3(CC2)CC(CN(C)C(=O)[C@](O)(c2cccc(OC)c2)C(F)(F)F)C3)nc1Cl [Example 14-2, 2-chloro-N-methyl-6-(2-(((R)-3,3,3-trifluoro-2-hydroxy-2-(3-methoxyphenyl)-N-methylpropanamido)methyl)-7-azaspiro[3.5]nonan-7-yl)nicotinamide] | No IP | 8 | 473 | 30 | – | – | – |
| CNC(=O)c1ccc(N2CCC3(CC2)C[C@H]3CCN(C)C(=O)[C@](O)(c2ccccc2)C(F)(F)F)cc1Cl [Example 7-24, 2-chloro-N-methyl-4-((S)-1-(2-((R)-3,3,3-trifluoro-2-hydroxy-N-methyl-2-phenylpropanamido)ethyl)-6-azaspiro[2.5]octan-6-yl)benzamide] | No IP | 16 | 1410 | 37 | – | – | – |
